Results reported in patent US20110318396A1, “DERMATOLOGICAL/COSMETIC COMPOSITIONS COMPRISING A RETINOID AND BENZOYL PEROXIDE” (Galderma Research & Development, priority 2006, published 2011).
Like-named read-outs stand apart in the source and are kept apart here.

Columns and labels:
[1] = in presence of the formulation based on benzoyl peroxide, cited from earlier work; for Retinoid degraded: calculated
[2] = Chemical stability: assay of adapalene by internal calibration in HPLC; format: physicochemical; details: composition of Example 2 a); AT; T 3 months
Excerpt: Assay of the active by internal calibration in HPLC.
At the starting time (T0) the composition is considered to contain 100% of adapalene. Concentration of adapalene measured in % relative to T0: […]

[3] = cited from earlier work; for Degradation time: 40° C.
[4] = Chemical stability: assay of benzoyl peroxide by internal calibration in HPLC; format: physicochemical; details: composition of Example 2 a)
Excerpt: Benzoyl Peroxide: Assay of the active by internal calibration in HPLC. At the starting time (T0) the composition is considered to contain 100% of benzoyl peroxide. Concentration of benzoyl peroxide measured in % relative to T0: […]

[5] = in PEG 400 and ethanol; cited from earlier work

**Q.** With `COc1ccc(-c2ccc3cc(C(=O)O)ccc3c2)cc1C12CC3CC(CC(C3)C1)C2` [Adapalene, 6-(3-(1-adamantyl)-4-methoxyphenyl)-2-naphthoic acid] as the compound, how does the “Degradation of the retinoid” value ([1]; over 24 hours) read?
**A.** no degradation

**Q.** And the “Concentration of adapalene measured in % relative to T0” value [2]?
**A.** 97.7%

**Q.** For `O=C(OOC(=O)c1ccccc1)c1ccccc1` [Benzoyl Peroxide, benzoyl peroxide], which Degradation time ([3]; in solution in PEG 400 (0.5 mg/g)) is on record?
**A.** 1.4 days

**Q.** What about the Degradation time ([3]; in solution in ethanol) of the same compound?
**A.** 29 days

**Q.** What about the Degradation time ([3]; in solution in propylene glycol) of the same compound?
**A.** 53 days

**Q.** What about the “Degradation in suspension (dispersed form)” value ([3]; in water and propylene glycol, kept for 90 days) of the same compound?
**A.** not degraded

**Q.** What about the “Concentration of benzoyl peroxide measured in % relative to T0” value ([4]; 40° C., T 1 month) of the same compound?
**A.** 96.3%

**Q.** What about the “Concentration of benzoyl peroxide measured in % relative to T0” value ([4]; 40° C., T 2 months) of the same compound?
**A.** 81.6%

**Q.** And the “Concentration of benzoyl peroxide measured in % relative to T0” value ([4]; 40° C., T 3 months)?
**A.** 88.7%

**Q.** What about the “Concentration of benzoyl peroxide measured in % relative to T0” value ([4]; AT, T 0) of the same compound?
**A.** 99.2%

**Q.** What about the “Concentration of benzoyl peroxide measured in % relative to T0” value ([4]; AT, T 3 months) of the same compound?
**A.** 94.8%

**Q.** What about the Solubility [5] of the same compound?
**A.** particularly soluble

**Q.** Which Retinoid degraded ([1]; in 2 hours) does the source give for `CC1=C(/C=C/C(C)=C/C=C/C(C)=C/C(=O)O)C(C)(C)CCC1` [tretinoin] here?
**A.** 50%

**Q.** And the Retinoid degraded ([1]; in 24 hours)?
**A.** 95%
